Among the data in PMC11939889, “Efficient Incorporation of DOPA into Proteins Free from Competition with Endogenous Translation Termination Machinery” (Biomolecules, 2025) are Kd values, retold here.

The target in the assay is T1, DOPARS (Methanocaldococcus jannaschii, UniProt Q57834, D158A/D286A/E220K/F261S/H283P/H70A/I159A/L282P/L65E/M285R/N268D/P284L/Y119F).
T1 construct: gene tyrS
In words: isothermal titration calorimetry. The class given is binding. (In ITC the heat of successive injections is recorded.)

T1 sequence (Q57834 whole entry L65E/H70A/Y119F/D158A/I159A/E220K/F261S/N268D/L282P/H283P/P284L/M285R/D286A): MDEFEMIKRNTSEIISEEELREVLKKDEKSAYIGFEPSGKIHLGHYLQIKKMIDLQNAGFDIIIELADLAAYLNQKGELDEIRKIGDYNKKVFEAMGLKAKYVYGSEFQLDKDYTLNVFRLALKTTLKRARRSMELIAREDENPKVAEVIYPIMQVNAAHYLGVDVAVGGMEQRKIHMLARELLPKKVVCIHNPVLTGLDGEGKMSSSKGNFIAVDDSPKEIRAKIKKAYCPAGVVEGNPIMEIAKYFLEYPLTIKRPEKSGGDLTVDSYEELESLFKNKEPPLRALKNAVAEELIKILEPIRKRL

In the case of `N[C@@H](Cc1ccc(O)c(O)c1)C(=O)O` [DOPA, 3,4-Dihydroxy-L-phenylalanine], the Kd (in general, the concentration at which binding is half-saturated) was determined as 11.7 µM.
